The record followed here is US20140196172A1, “Organelle Targeting Nanocarriers” (Her Majesty the Queen in Right of Canada, as Repre sented …, priority 2011, published 2014).

Data set [1] relates to Caco-2 cells. The data set can be described thus: Caco-2 cell transformation with gfp reporter, photometric cell imaging. It counts as cell-based, human. Particulars: for Fluorescence observed in cells upon transfection / Expression of GFP in mitochondria: Caco-2, mitochondrial gfp-reporter construct; for Expression of GFP in mitochondria: photometric cell imaging; for gfp expression, Photometric Cell Imaging (average counts/sec) Caco-2: pWMaadA16GFP 5 μg + peptide 500 μg, measured at 40 h. Here is the method:
(§1) Uptake of labeled peptides by cells is quantified using a photometric detector/cell-imaging system (PTI). An excitation scan is run to determine if uptake has occurred as indicated by peaks at the appropriate wavelengths and if the amount changes in a dose-dependent manner compared to unlabeled cells. A time-based scan is then performed at the optimal excitation and emission wavelength to quantify total uptake, using about 20 cells/view/replicate.
(§2) The ten non-labelled oTPs listed in Tables 3 and 4 were tested for their capability to deliver biologically active DNA to chloroplasts or mitochondria using an oTP-GFP reporter construct transfection assay. oTPs are mixed with a double stranded (ds) DNA construct encoding Aequorea victoria green fluorescent protein (GFP) to form a complex. The plasmid-peptide nanocomplexes formed are incubated with triticale mesophyll protoplasts, microspores, or MDCK, Caco-2, F1112 or MG cells. Detection of a fluorescent signal by confocal microscopy and/or photometric cell imaging would indicate that the dsDNA had been transported into organelles and that transient expression of GFP had occurred. In addition, gene expression can be measured using quantitative real-time PCR to determine gfp mRNA abundance.
(§3) Wheat mitochondrial aadA16GFP reporter plasmid (pWMaadA16GFP, FIG. 11) is a 4587 base pair wheat specific mitochondrial transformation vector, which targets insertions into the fourth repeat region between the trnfM and rm18 gene cluster which is repeated three times in the Triticum aestivum mitochondrial genome. The insertion site is in the Triticum aestivum mitochondrial genome at nucleotides 300805-300878 and 300880-302834 (GenBank accession No. AP008982.1). A multiple cloning site is introduced following the tmfM target insertion sequence. The selection marker gene is an organelle codon specific aad-gfp fusion gene, which facilitates a dual selection method of spectinomycin resistance through an aadA derivative and visual detection by GFP fluorescence (GenBank accession No. ABX39486; Khan and Maliga, Nat. Biotechnol. (1999 September) 17(9): 910-5). The selection marker gene is driven by the Triticum aestivum mitochondrial atpA gene promoter (GenBank accession No. X54387.1). The aad-gfp fusion gene is terminated with the TpsbA terminator sequence derived from the Triticum aestivum mitochondrial genome at nucleotides 62871-62565 (GenBank accession No. AP008982.1).
(§4) The dsDNA construct (pWMaadA16GFP. 100 μl of the stock solution, 5 μg) is combined with mTP1 (SEQ ID NO: 1) or mTP4 (SEQ ID NO: 4) (100 μl of the unlabelled stock, 500 μg) and incubated for 15 minutes at 37° C. An 800 μl aliquot of DMEM is added to the mixture and 100 μl of this mixture is then added to each cell monolayer (prepared as described in Example 2) that has 500 μl complete media. The cells are incubated at 37° C. in a humidified atmosphere containing 5% CO2 for 24 h to 72 hr. The uptake and expression of the GFP reporter is measured at 40 h using a photometric detector/cell-imaging system (PTI) as described in Example 2. The cells are also imaged using confocal microscopy as described in Example 2 using MitoTracker® Orange staining to visualize mitochondria.

Data set [2] has as its system MG cells. The data set can be described thus: MG cell transformation with gfp reporter, photometric cell imaging. It counts as cell-based, bovine. To be noted: for Fluorescence observed in cells upon transfection / Expression of GFP in mitochondria: MG, mitochondrial gfp-reporter construct; for Expression of GFP in mitochondria: photometric cell imaging; for gfp expression, Photometric Cell Imaging (average counts/sec) MG: pWMaadA16GFP 5 μg + peptide 500 μg, measured at 40 h. Here is the method: as §1, §2, §3, §4

For data set [3], the system named is F1112 cells. The data set can be described thus: F1112 cell transformation with gfp reporter, photometric cell imaging. The data set is classed as cell-based, bovine. To be noted: for Fluorescence observed in cells upon transfection / Expression of GFP in mitochondria: F1112, mitochondrial gfp-reporter construct; for Expression of GFP in mitochondria: photometric cell imaging; for gfp expression, Photometric Cell Imaging (average counts/sec) F1112: pWMaadA16GFP 5 μg + peptide 500 μg, measured at 40 h. Here is the method: as §1, §2, §3, §4

Data set [4] relates to mitochondria of triticale mesophyll protoplasts. The data set can be described thus: Protoplast transformation with gfp reporter, confocal microscopy. The data set is classed as cell-based. Particulars: pWMaadA16GFP plasmid, 24 h. Here is the method: as §2
Wheat mitochondrial aadA16GFP reporter plasmid (pWMaadA16GFP, FIG. 11) is a 4587 base pair wheat specific mitochondrial transformation vector, which targets insertions into the fourth repeat region between the trnfM and rm18 gene cluster which is repeated three times in the Triticum aestivum mitochondrial genome. The insertion site is in the Triticum aestivum mitochondrial genome at nucleotides 300805-300878 and 300880-302834 (GenBank accession No. AP008982.1). A multiple cloning site is introduced following the tmfM target insertion sequence. […]

For “MFSYLPRYPLRAASARALVRATRPSYRSALLRYQ (listed as Triticum aestivum) [mTP1]”, in data set [1], the “Fluorescence observed in cells upon transfection” value (“Fluorescence observed” for short) is reported as “fluorescence was observed in all cells”; the “Expression of GFP in mitochondria” value is “detected”; the “gfp expression, Photometric Cell Imaging (average counts/sec) Caco-2” value is given as 2000000 counts/sec. For the same sequence, in data set [2], the “Fluorescence observed” value is recorded as “fluorescence was observed in all cells”; the “Expression of GFP in mitochondria” value is given as “detected”; the “gfp expression, Photometric Cell Imaging (average counts/sec) MG” value turned out to be 1900000 counts/sec. In addition, in data set [3], the “Fluorescence observed” value was “fluorescence was observed in all cells”; the “Expression of GFP in mitochondria” value was “detected”; the “gfp expression, Photometric Cell Imaging (average counts/sec) F1112” value is recorded as 1900000 counts/sec.

As for MAAWMRSLFSPLKKLWIRMH (Zea mays) [mTP2], the “Transfection of mitochondria (GFP fluorescence)” value in data set [4] is reported as “can mediate the transfection of mitochondria”.

“MWWRRSRTNSLRYT (listed as Arabidopsis thaliana) [mTP4]”: in data set [1], the “Fluorescence observed” value is “no fluorescence was observed”; the “Expression of GFP in mitochondria” value was “detected”; the “gfp expression, Photometric Cell Imaging (average counts/sec) Caco-2” value is 570000 counts/sec. Also, in data set [2], the “Fluorescence observed” value is on record as “no fluorescence was observed”; the “Expression of GFP in mitochondria” value is reported as “detected”; the “gfp expression, Photometric Cell Imaging (average counts/sec) MG” value stood at 650000 counts/sec. Further, the “Transfection of mitochondria (GFP fluorescence)” value in data set [4] was “can mediate the transfection of mitochondria”. In addition, in data set [3], the “Fluorescence observed” value is given as “no fluorescence was observed”; the “Expression of GFP in mitochondria” value is “detected”; the “gfp expression, Photometric Cell Imaging (average counts/sec) F1112” value stood at 650000 counts/sec.
